Results from patent publication US12459951B2, “Compounds that interact with RAS superfamily proteins for treatment of cancers, inflammatory diseases, rasopathies, and fibrotic disease” (SHY Therapeutics, LLC, priority 2022, dated 2025).
Structures can show the parent of a compound that is named as a salt.

Experiments:
IL6 = assay: IL-6 Quantification Assay (ELISA), LPS-stimulated RAW 264.7; format: cell-based; design: inhibition: dose or concentration left out as unconfirmed; details: Mus musculus, RAW264.7; read-out: IL-6: % inh.
Akt phosphorylation = assay: Akt Phosphorylation Assay (western blot), Panc-1; format: cell-based, human; details: at 10 μM, * = activation
In short: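 Phospho-Akt (Ser473) was measured by western blot in lysates of KRas G12D Panc-1 cells exposed to test compound for 6 h at 37 °C, either at 10 μM final with 0.3% DMSO or as serial dilutions for IC50. One format used overnight 0.5% FBS starvation followed by a 15 min pulse of 1.5 ng/ml EGF. The other used cells in 10% FBS with no stimulation.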

[1] = tested on: Smad2/Smad3 phosphorylation; assay: Phospho-Smad2/3 Inhibition Assay (western blot), Panc-1; format: cell-based, human; details: at 10 μM, Panc-1 pancreatic cancer cell line; starred symbols = activation
In short: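 Western blotting of lysates (15-50 μg protein) read phosphorylation of Smad2 Ser465/467 and Smad3 Ser423/425. Before lysis, Panc-1 cells got 1 h of 10 ng/ml TGF-b1 following 3 h compound exposure at 37° C (10 μM final, or serial dilutions for IC50, 0.3% DMSO) after overnight 0.5% FBS starvation.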

Structure (SMILES)	inhibition (IL6) [%]	% inh of Akt phosphorylation in Panc-1 (Akt phosphorylation)	% inh of Smad2/3 phosphorylation in Panc-1 [1]
CO[C@H]1CC[C@@H](Nc2nc(-c3nccn3C)nn3cc(-c4ccn(C(C)C)n4)c(C)c23)C1 (racemic) [Compound 1, rac 6-(1-Isopropyl-1H-pyrazol-3-yl)-N-((1R,3S)-3-methoxycyclopentyl)-5-methyl-2-(1-methyl-1H-imidazol-2-yl)pyrrolo[2,1-f][1,2,4]triazin-4-amine]	75 to 100	C* (46-84% activation)	
COCC1CCN(c2nc(-c3nccn3C)nn3cc(-c4ccn(C(C)C)n4)c(C)c23)C1 (racemic) [Compound 2, rac 6-(1-Isopropyl-1H-pyrazol-3-yl)-4-(3-(methoxymethyl)pyrrolidin-1-yl)-5-methyl-2-(1-methyl-1H-imidazol-2-yl)pyrrolo[2,1-f][1,2,4]triazine]	1 to 24	C* (46-84% activation)	
COC[C@@H]1CC[C@@H]1CNc1nc(-c2nccn2C)nn2cc(-c3ccn(C(C)C)n3)c(C)c12 (racemic) [Compound 3, rac 6-(1-Isopropyl-1H-pyrazol-3-yl)-N-(((1S,2R)-2-(methoxymethyl)cyclobutyl)methyl)-5-methyl-2-(1-methyl-1H-imidazol-2-yl)pyrrolo[2,1-f][1,2,4]triazin-4-amine]	50 to 74	B (26-49% inhibition)	
COC1CCCN(c2nc(-c3nccn3C)nn3cc(-c4ccn(C(C)C)n4)c(C)c23)C1 (racemic) [Compound 4, rac 6-(1-Isopropyl-1H-pyrazol-3-yl)-5-methyl-2-(1-methyl-1H-imidazol-2-yl)-4-(3-(oxo-γ6-methyl)piperidin-1-yl)pyrrolo[2,1-f][1,2,4]triazine]	75 to 100	0 (0% inhibition)	
CO[C@H]1CC[C@@H](Nc2nc(-c3nccn3C)nn3cc(-c4ccn(C(C)C)n4)c(-c4ccccc4)c23)C1 (racemic) [Compound 18, rac 6-(1-Isopropyl-1H-pyrazol-3-yl)-N-((1R,3S)-3-methoxycyclopentyl)-2-(1-methyl-1H-imidazol-2-yl)-5-phenylpyrrolo[2,1-f][1,2,4]triazin-4-amine hydrochloride]	25 to 49	D* (85-100% activation)	
COCC1CCN(c2nc(-c3nccn3C)nn3cc(-c4ccn(C(C)C)n4)c(-c4ccccc4)c23)C1.Cl (racemic) [Compound 19, rac 6-(1-Isopropyl-1H-pyrazol-3-yl)-4-(3-(methoxymethyl)pyrrolidin-1-yl)-2-(1-methyl-1H-imidazol-2-yl)-5-phenylpyrrolo[2,1-f][1,2,4]triazine hydrochloride salt]	75 to 100	D* (85-100% activation)	
COC[C@@H]1CC[C@@H]1CNc1nc(-c2nccn2C)nn2cc(-c3ccn(C(C)C)n3)c(-c3ccccc3)c12 (racemic) [Compound 20, rac 6-(1-Isopropyl-1H-pyrazol-3-yl)-N-(((1S,2R)-2-(methoxymethyl)cyclobutyl)methyl)-2-(1-methyl-1H-imidazol-2-yl)-5-phenylpyrrolo[2,1-f][1,2,4]triazin-4-amine]	75 to 100	D (85-100% inhibition)	
COC1CCCN(c2nc(-c3nccn3C)nn3cc(-c4ccn(C(C)C)n4)c(-c4ccccc4)c23)C1 (racemic) [Compound 21, rac 6-(1-Isopropyl-1H-pyrazol-3-yl)-4-(3-methoxypiperidin-1-yl)-2-(1-methyl-1H-imidazol-2-yl)-5-phenylpyrrolo[2,1-f][1,2,4]triazine]	1 to 24	C* (46-84% activation)	
COc1cccc(-c2cn3nc(-c4nccn4C)nc(N[C@@H]4CC[C@@H](OC)C4)c3c2-c2ccccc2)c1Cl.Cl (racemic) [Compound 34, rac 6-(2-Chloro-3-methoxyphenyl)-N-((1R,3R)-3-methoxycyclopentyl)-2-(1-methyl-1H-imidazol-2-yl)-5-phenylpyrrolo[2,1-f][1,2,4]triazin-4-amine hydrochloride]	75 to 100	D (85-100% inhibition)	
COc1cccc(-c2cn3nc(-c4nccn4C)nc(N[C@@H]4CC[C@@H](OC)C4)c3c2-c2ccccc2)c1C (racemic) [Compound 270, rac 6-(3-Methoxy-2-methylphenyl)-N-((1R,3R)-3-methoxycyclopentyl)-2-(1-methyl-1H-imidazol-2-yl)-5-phenylpyrrolo[2,1-f][1,2,4]triazin-4-amine]	75 to 100	D (85-100% inhibition)	
COc1cccc(-c2cn3nc(-c4nccn4C)nc(N[C@@H]4CC[C@H](OC)C4)c3c2-c2ccccc2)c1C (racemic) [Compound 271, rac 6-(3-Methoxy-2-methylphenyl)-N-((1R,3S)-3-methoxycyclopentyl)-2-(1-methyl-1H-imidazol-2-yl)-5-phenylpyrrolo[2,1-f][1,2,4]triazin-4-amine]	75 to 100	D (85-100% inhibition)	
COCCNc1nc(-c2nccn2C)nn2cc(-c3ccn(C(C)C)n3)c(C)c12 [Compound 5, 6-(1-Isopropyl-1H-pyrazol-3-yl)-N-(2-methoxyethyl)-5-methyl-2-(1-methyl-1H-imidazol-2-yl)pyrrolo[2,1-f][1,2,4]triazin-4-amine]	0	0 (0% inhibition)	
COc1cccc(Nc2nc(-c3nccn3C)nn3cc(-c4ccn(C(C)C)n4)c(C)c23)n1 [Compound 7, 6-(1-Isopropyl-1H-pyrazol-3-yl)-N-(6-methoxypyridin-2-yl)-5-methyl-2-(1-methyl-1H-imidazol-2-yl)pyrrolo[2,1-f][1,2,4]triazin-4-amine]	1 to 24	0 (0% inhibition)	
CC(C)n1ccc(-c2cn3nc(-c4nccn4C)nc(O)c3c2-c2ccccc2)n1 [Compound 17, 6-(1-Isopropyl-1H-pyrazol-3-yl)-2-(1-methyl-1H-imidazol-2-yl)-5-phenylpyrrolo[2,1-f][1,2,4]triazin-4-ol]	50 to 74	D (85-100% inhibition)	
COc1cc(Nc2nc(-c3nccn3C)nn3cc(-c4ccn(C(C)C)n4)c(-c4ccccc4)c23)ncn1 [Compound 22, 6-(1-Isopropyl-1H-pyrazol-3-yl)-N-(6-methoxypyrimidin-4-yl)-2-(1-methyl-1H-imidazol-2-yl)-5-phenylpyrrolo[2,1-f][1,2,4]triazin-4-amine]	75 to 100	A* (1-25% activation)	
Cc1ccn2nc(-c3nccn3C)nc(N)c12.O=C(O)C(F)(F)F [Compound 37, 5-Methyl-2-(1-methyl-1H-imidazol-2-yl)pyrrolo[2,1-f][1,2,4]triazin-4-amine trifluoroacetic acid salt]	0	0 (0% inhibition)	
Cn1ccnc1-c1nc(O)c2c(-c3ccccc3)ccn2n1 [Compound 39, 2-(1-Methyl-1H-imidazol-2-yl)-5-phenylpyrrolo[2,1-f][1,2,4]triazin-4-ol]	0	0 (0% inhibition)	
Cc1c(-c2ccn(C(C)C)n2)cn2nc(-c3nccn3C)nc(Nc3noc(C4CC4)n3)c12 [Compound 75, 5-Cyclopropyl-N-(6-(1-isopropyl-1H-pyrazol-3-yl)-5-methyl-2-(1-methyl-1H-imidazol-2-yl)pyrrolo[2,1-f][1,2,4]triazin-4-yl)-1,2,4-oxadiazol-3-amine]	1 to 24	A* (1-25% activation)	A (A = 1-25% inhibition)
CCc1nc(Nc2nc(-c3nccn3C)nn3cc(-c4ccn(C(C)C)n4)c(C)c23)nn1C [Compound 76, N-(5-Ethyl-1-methyl-1H-1,2,4-triazol-3-yl)-6-(1-isopropyl-1H-pyrazol-3-yl)-5-methyl-2-(1-methyl-1H-imidazol-2-yl)pyrrolo[2,1-f][1,2,4]triazin-4-amine]	25 to 49	D* (85-100% activation)	B (B = 26-45% inhibition)
Cc1c(-c2ccn(C(C)C)n2)cn2nc(-c3nccn3C)nc(Nc3cnn(C(C)C)n3)c12 [Compound 77, 6-(1-Isopropyl-1H-pyrazol-3-yl)-N-(2-isopropyl-2H-1,2,3-triazol-4-yl)-5-methyl-2-(1-methyl-1H-imidazol-2-yl)pyrrolo[2,1-f][1,2,4]triazin-4-amine]	1 to 24	D* (85-100% activation)	C (C = 46-75% inhibition)
Cc1c(-c2ccn(C(C)C)n2)cn2nc(-c3nccn3C)nc(Nc3cn(C(C)C)nn3)c12 [Compound 78, N-(1-Isopropyl-1H-1,2,3-triazol-4-yl)-6-(1-isopropyl-1H-pyrazol-3-yl)-5-methyl-2-(1-methyl-1H-imidazol-2-yl)pyrrolo[2,1-f][1,2,4]triazin-4-amine]	25 to 49	D* (85-100% activation)	A (A = 1-25% inhibition)
COCc1noc(Nc2nc(-c3nccn3C)nn3cc(-c4ccn(C(C)C)n4)c(C)c23)n1 [Compound 82, N-(6-(1-Isopropyl-1H-pyrazol-3-yl)-5-methyl-2-(1-methyl-1H-imidazol-2-yl)pyrrolo[2,1-f][1,2,4]triazin-4-yl)-3-(methoxymethyl)-1,2,4-oxadiazol-5-amine]	75 to 100	D* (85-100% activation)	
